Series [1] is described as follows: pKa determined potentiometrically. Conditions: determined potentiometrically in a separate experiment. The series is classed as physicochemical. As to the method: (§1) The aqueous solubility of 1-(2-methylpropyl)-1H-imidazo[4,5-c][1,5]naphthyridin-4-amine free base was measured potentiometrically as a function of pH. […] The titration was carried out on a sample approximately 3 mg in size. […] The pKa of 1-(2-methylpropyl)-1H-imidazo[4,5-c][1,5]naphthyridin-4-amine, determined potentiometrically in a separate experiment to be 6.1, was used in the calculation to determine the intrinsic solubility. The curve showing solubility as a function of pH for 1-(2-methylpropyl)-1H-imidazo[4,5-c][1,5]naphthyridin-4-amine free base is shown in FIG. 5.

The test system of a further series is cytokine biosynthesis. Conditions: U.S. Pat. No. 6,194,425; cited from earlier work.
A short description of series [2]: In-situ salt selection test carried out in water. The series is classed as physicochemical. The conditions noted are these: for aqueous solubility (in words): summary statement; for Appearance: appearance of the resulting solution after 24 hours at 25° C., in water; for solubility at 24 h: water (salt formed in situ with aqueous acid), thermodynamic from solid. As to the method: Aqueous solutions (0.5 molar (M)) of ethanesulfonic acid, methanesulfonic acid, and hydrochloric acid were prepared. For ethanesulfonic acid and methanesulfonic acid, the neat acid (0.05 mol) was dissolved in water (100 mL) to prepare the solutions. Hydrochloric acid (1 normal (N)) was diluted with water to prepare 0.5 M hydrochloric acid. The free base of 1-(2-methylpropyl)-1H-imidazo[4,5-c][1,5]naphthyridin-4-amine in an amount indicated in the following Table 1 was added to a vial, and the acidic solution from the following Table 1 (1.05 equivalent) was added. The vial was capped and shaken at 25° C. in a water bath for 24 hours. The resulting salt mixture or solution was filtered through Whatman No. 5 filter paper, and 1 mL of the filtrate was diluted with methanol (10 mL) to provide a specimen for analysis. The solubility of the salt in water was determined for each specimen by analyzing for soluble salt content by reverse phase high performance liquid chromatography (HPLC) using the following method.
A diluent was prepared by dissolving phosphoric acid (1 mL of 85%) in HPLC grade water (1 L). The resulting solution was mixed in a 60:40 ratio with acetonitrile. Each specimen was diluted to a volume of 50.0 mL with the diluent to provide a sample having a concentration of less than or equal to (≦) 50 micrograms per milliliter (μg/mL).
An external standard was prepared by dissolving 1-(2-methylpropyl)-1H-imidazo[4,5-c][1,5]naphthyridin-4-amine free base (25 mg) in methanol (30 mL) with the aid of sonication and then diluting to a volume of 50.0 mL with methanol to provide a stock solution. Diluent was added to 5 mL of the stock solution to a volume of 50.0 mL.
A Waters LC Module 1 HPLC system equipped with an autosampler, a reproducible injector, a UV detector (326 nm wavelength), and Turbochrom data acquisition software was used with a ZORBAX Bonus-RP C14, 15 cm×4.6 mm column with 5 μm packing. The mobile phase was prepared by dissolving 1-octanesulfonate, sodium salt (2.00 g) and phosphoric acid (1 mL of 85%) in HPLC grade water (1 L) and mixing the resulting solution in a 65:35 ratio with HPLC grade acetonitrile. A flow rate of 1.0 mL/min was used.
The column was equilibrated with the mobile phase, and the system was tested using six 20 μL injections of the external standard to ensure that the relative standard deviation for the peak areas was less than or equal to (≦) 1.5%. An injection of each sample (20 μL) was tested in comparison to a standard. The concentration, in percentage, of 1-(2-methylpropyl)-1H-imidazo[4,5-c][1,5]naphthyridin-4-amine in solution was then calculated using the following operation: {[peak area of the sample/weight of the sample (mg)]/[peak area of the standard/weight of the standard (mg)]average}×100. The solubility of the salt, presented in the following Table 1, can then be calculated using the equations presented by Tong, W. Q., and Whitesell, G, Pharmaceutical Development and Technology, 3(2), pp. 215-223 (1998).

Series [3] in a line: Aqueous solubility of the free base measured potentiometrically as a function of pH (p-SOL microtitrator). The format is physicochemical. Conditions: saline or isotonic, thermodynamic from solid, 0.15 M aqueous potassium chloride, potentiometric titration, read-out: intrinsic solubility (So). The method, then:
as §1

Series [4] concerns interferon (α) and tumor necrosis factor (α) secreted by peripheral blood mononuclear cells (PBMC). Put plainly: Cytokine induction in human cells (PBMC). The format is cell-based. Conditions: 18 to 24 hours, 30-0.014 μM. The text has this: An in vitro human blood cell system is used to assess cytokine induction. Activity is based on the measurement of interferon (α) and tumor necrosis factor (α) (IFN and TNF, respectively) secreted into culture media as described by Testerman et al. in “Cytokine Induction by the Immunomodulators Imiquimod and S-27609,” Journal of Leukocyte Biology, 58, 365-372 (September, 1995).
Whole blood from healthy human donors is collected by venipuncture into EDTA vacutainer tubes. Peripheral blood mononuclear cells (PBMC) are separated from whole blood by density gradient centrifugation using HISTOPAQUE-1077. […]
Following incubation the plates are centrifuged for 10 minutes at 1000 revolutions per minute (rpm) (approximately 200×g) at 4° C. […] The samples are analyzed for interferon (α) by ELISA and for tumor necrosis factor (α) by ELISA or IGEN Assay.
Interferon (α) concentration is determined by ELISA using a Human Multi-Species kit from PBL Biomedical Laboratories, New Brunswick, N.J. Results are expressed in pg/mL.
Tumor necrosis factor (α) (TNF) concentration is determined using ELISA kits available from Biosource International, Camarillo, Calif. Alternately, the TNF concentration can be determined by ORIGEN M-Series Immunoassay and read on an IGEN M-8 analyzer from IGEN International, Gaithersburg, Md. […]

The nature of series [5]: In-situ salt selection test carried out in water with a cosolvent. The series is classed as physicochemical. The conditions noted are these: 25 °C, aqueous with cosolvent or surfactant or cyclodextrin, thermodynamic from solid, final acid concentration 0.05 M.
A short description of series [6]: Physical and chemical stability in solid form. The format is physicochemical.
Setting [7] is: salt formed in situ in water, shaken at 25° C. for 24 hours, filtrate by HPLC.
Where [8] appears, read: 5% (w/w) diethylene glycol monoethyl ether in water.
Setting [9] is: 5% (w/w) propylene glycol in water.

SMILES strings stand for the structures. Converted amounts (≈) assume the structure as drawn. “And” between values parts separate entries of the source, which are not always exact repeats. Equal values may be shown once.

As a reminder, the melting point is the temperature of the solid-liquid transition. On to `CC(C)Cn1cnc2c(N)nc3cccnc3c21.CCS(=O)(=O)O.O` (hydrate or solvate), for which the melting point is 221.5 to 223.4 °C and 220 to 221 °C.

As usually defined, the pKa is the negative logarithm of the acid dissociation constant. Read a low pKa as a stronger acid or weaker base. One may read the solubility as the concentration that dissolves in the medium under given conditions. With `CC(C)Cn1cnc2c(N)nc3cccnc3c21` [1-(2-methylpropyl)-1H-imidazo[4,5-c][1,5]naphthyridin-4-amine], the pKa in series [1] is 6.1. Moreover, the “ability to induce cytokine biosynthesis” value in the series with cytokine biosynthesis is given as “ability to induce cytokine biosynthesis”. In addition, the “aqueous solubility (in words)” value in series [2] was “particularly low aqueous solubility”. Moreover, the solubility in series [3] was determined as 0.003 mg/mL (≈ 12.4 µM).

Regarding `CC(C)Cn1cnc2c(N)nc3cccnc3c21.CCS(=O)(=O)O` [Ethanesulfonic, 1-(2-methylpropyl)-1H-imidazo[4,5-c][1,5]naphthyridin-4-amine ethanesulfonate], the “induction of interferon α and/or tumor necrosis factor α production” value in series [4] was “inducing the production of interferon α and/or tumor necrosis factor α”. For the same compound, in series [2], the Appearance result is given as “Clear”. For the same compound, the “aqueous solubility (in words)” value in series [2] is given as “good aqueous solubility”. Besides, the solubility at 24 h in series [2] (setting [7]) is 24.4 mg/mL; in series [5] (setting [8]), 10.5 mg/mL; in series [5] (setting [9]) it was greater than 10.1 mg/mL. For the same compound, the “physical and chemical stability in solid form” value in series [6] was “good physical and chemical stability in solid form”.

For the compound `CC(C)Cn1cnc2c(N)nc3cccnc3c21.Cl` [Hydrochloric, hydrochloride salt of 1-(2-methylpropyl)-1H-imidazo[4,5-c][1,5]naphthyridin-4-amine, reference compound], in series [2], the Appearance result is “Milky,” and the “aqueous solubility (in words)” value is “low aqueous solubility”. The “solubility” value in series [2] (setting [7]) came to 0.39 mg/mL.

On to `CC(C)Cn1cnc2c(N)nc3cccnc3c21.CS(=O)(=O)O` [Methanesulfonic, 1-(2-methylpropyl)-1H-imidazo[4,5-c][1,5]naphthyridin-4-amine methanesulfonate], for which the Appearance result in series [2] is given as “Translucent”. In series [2], the “aqueous solubility (in words)” value was “good aqueous solubility”. Moreover, the solubility at 24 h in series [2] (setting [7]) was determined as 15.2 mg/mL; in series [5] (setting [8]), 10.5 mg/mL; in series [5] (setting [9]), 10.3 mg/mL. Further, the “physical and chemical stability in solid form” value in series [6] was “good physical and chemical stability in solid form”.

The values above are taken from patent publication US20080188513A1, “1-(2-Methylpropyl)-1H-Imidazo[4,5-C](1,5]Naphthyridin-4-Amine Ethanesulfonate and 1-(2-Methylpropyl)-1H-Imidazo[4,5-C](1,5]Naphthyridin-4-Amine Methanesulfonate” (taked Pharmaceutical Company Limited, priority 2004, published 2008).
